Experimental data reported in article PMC7127491 (Bioorganic & Medicinal Chemistry, 2008).
“Also recorded” adds a separate entry of the source.

Key:
Assay type in all cases: cell-based
influenza A (H3N2) = experiment: microbe, parasite or virus in culture; settings: H3N2, MDCK, read-out: EC50 against influenza A (H3N2)
HIV-2 = experiment: Anti-HIV-2 activity, virus-induced cytopathicity in CEM cells
HIV-1 = experiment: Anti-HIV-1 activity, virus-induced cytopathicity in CEM cells
[1] = tested on: normal diploid human fibroblasts (WI 38); experiment: Antiproliferation MTT assay
[2] = tested on: all evaluated tumour cell lines (L1210, Molt4/C8, CEM, HeLa, MCF-7, MiaPaCa-2, SW 620, Hep G2); experiment: Cytostatic activity over the whole panel of evaluated cell lines; settings: read-out: IC50 range on all the evaluated tumour cell lines

| Structure (SMILES) | EC50 (influenza A (H3N2)) | inhibitory activity against HIV-2, in words (HIV-2) | inhibitory activity against HIV-1, in words (HIV-1) | cytotoxicity to human normal fibroblasts (WI 38), in words [1] | IC50 [2] |
| --- | --- | --- | --- | --- | --- |
| CCCCCCCCC#Cc1cn(C/C=C\CN2C(=O)c3ccccc3C2=O)c(=O)[nH]c1=O [Compound 2, (Z)-1-[4′-(N-Phthalimido)-2′-butenyl]-5-decynyluracil] | 2.5 to 4 µM |  |  |  |  |
| O=C1c2ccccc2C(=O)N1C/C=C\Cn1cc(C#CCCc2ccccc2)c(=O)[nH]c1=O [Compound 3, (Z)-1-[4′-(N-Phthalimido)-2′-butenyl]-5-(4″-phenylbutynyl)uracil] |  | marginal inhibitory activity | marginal inhibitory activity; also recorded: slight activity |  |  |
| O=C1c2ccccc2C(=O)N1C/C=C\Cn1cc(C#Cc2ccc(Br)cc2)c(=O)[nH]c1=O [Compound 4, (Z)-1-[4′-(N-Phthalimido)-2′-butenyl]-5-(p-bromophenylethynyl)uracil] |  | marginal inhibitory activity | marginal inhibitory activity; also recorded: slight activity |  |  |
| CCCCCc1ccc(C#Cc2cn(C/C=C\CN3C(=O)c4ccccc4C3=O)c(=O)[nH]c2=O)cc1 [Compound 7, (Z)-1-[4′-(N-Phthalimido)-2′-butenyl]-5-(p-pentylphenylethynyl)uracil] |  |  |  | no cytotoxicity |  |
| CCCCCc1ccc(C#Cc2cn(C/C=C/CN3C(=O)c4ccccc4C3=O)c(=O)[nH]c2=O)cc1 [Compound 14, (E)-1-[4′-(N-Phthalimido)-2′-butenyl]-5-(p-pentylphenylethynyl)uracil] |  | marginal inhibitory activity; also recorded: moderate activity | marginal inhibitory activity; also recorded: moderate activity | cytotoxic | 4.3 to 39 µM |
